Tests used:
Assay in all cases: relative viability (nuclei count vs DMSO), 5 days (fraction); higher = more cells survive
Pictilisib + Foretinib = compound: CS(=O)(=O)N1CCN(Cc2cc3nc(-c4cccc5[nH]ncc45)nc(N4CCOCC4)c3s2)CC1 [Pictilisib] + COc1cc2c(Oc3ccc(NC(=O)C4(C(=O)Nc5ccc(F)cc5)CC4)cc3F)ccnc2cc1OCCCN1CCOCC1 [Foretinib] (partner 0.25 µM)
Outline: (§1)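 Lung cancer cell lines in 1536-well plates were dosed by pin tool the day after seeding, either with one drug alone or with a fixed anchor-drug dose plus five library-drug doses (not always all listed) in √10 steps. After 5 days, cells were fixed and their nuclei stained in one step (final 0.05% Triton X-100, 1% formaldehyde, 1 ug/ml Hoechst), then counted on 4× images. Relative viability is the nuclei count in treated wells divided by that in vehicle wells. Values are medians of duplicate plates.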

Pictilisib + Linsitinib = compound: CS(=O)(=O)N1CCN(Cc2cc3nc(-c4cccc5[nH]ncc45)nc(N4CCOCC4)c3s2)CC1 [Pictilisib] + C[C@]1(O)C[C@@H](c2nc(-c3ccc4ccc(-c5ccccc5)nc4c3)c3c(N)nccn32)C1 [Linsitinib] (partner 1 µM)
Outline: as §1

MK-2206 + Pictilisib = compound: NC1(c2ccc(-c3nc4ccn5c(=O)[nH]nc5c4cc3-c3ccccc3)cc2)CCC1 [MK-2206] + CS(=O)(=O)N1CCN(Cc2cc3nc(-c4cccc5[nH]ncc45)nc(N4CCOCC4)c3s2)CC1 [Pictilisib] (partner 1 µM)
Outline: as §1

MK-2206 + Dasatinib = compound: NC1(c2ccc(-c3nc4ccn5c(=O)[nH]nc5c4cc3-c3ccccc3)cc2)CCC1 [MK-2206] + Cc1nc(Nc2ncc(C(=O)Nc3c(C)cccc3Cl)s2)cc(N2CCN(CCO)CC2)n1 [Dasatinib] (partner 0.075 µM)
Outline: as §1

MK-2206 + Phenformin = compound: NC1(c2ccc(-c3nc4ccn5c(=O)[nH]nc5c4cc3-c3ccccc3)cc2)CCC1 [MK-2206] + N=C(N)NC(=N)NCCc1ccccc1 [Phenformin] (partner 250 µM)
Outline: as §1

Cell Line	relative viability (Pictilisib + Foretinib; first compound 0.02 µM)	relative viability (Pictilisib + Foretinib; first compound 0.06325 µM)	relative viability (Pictilisib + Foretinib; first compound 0.6325 µM)	relative viability (Pictilisib + Foretinib; first compound 2 µM)	relative viability (Pictilisib + Linsitinib; first compound 0.02 µM)	relative viability (Pictilisib + Linsitinib; first compound 0.06325 µM)	relative viability (Pictilisib + Linsitinib; first compound 0.6325 µM)	relative viability (Pictilisib + Linsitinib; first compound 2 µM)	relative viability (MK-2206 + Pictilisib; first compound 0.01 µM)	relative viability (MK-2206 + Pictilisib; first compound 0.03162 µM)	relative viability (MK-2206 + Pictilisib; first compound 0.3162 µM)	relative viability (MK-2206 + Pictilisib; first compound 1 µM)	relative viability (MK-2206 + Dasatinib; first compound 0.01 µM)	relative viability (MK-2206 + Dasatinib; first compound 0.03162 µM)	relative viability (MK-2206 + Dasatinib; first compound 0.3162 µM)	relative viability (MK-2206 + Dasatinib; first compound 1 µM)	relative viability (MK-2206 + Phenformin; first compound 0.01 µM)	relative viability (MK-2206 + Phenformin; first compound 0.03162 µM)	relative viability (MK-2206 + Phenformin; first compound 0.3162 µM)	relative viability (MK-2206 + Phenformin; first compound 1 µM)
NCI-H650	0.984	1.09	1	0.877	0.979	1.03	0.809	0.633	0.804	0.901	0.87	0.81	0.448	0.442	0.453	0.326	0.458	0.473	0.471	0.353
IA-LM	1.2	1.14	0.894	0.518	0.482	0.7	0.757	0.249	0.299	0.256	0.26	0.141								
A-427	1.15	0.929	1	0.604	1.11	1.13	1.1	1.08	0.766	0.676	0.732	0.717	0.698	0.735	0.698	0.596	0.325	0.297	0.219	0.25
NCI-H2347	0.843	0.937	1.19	0.438	1.02	1.08	1.1	0.933	0.384	0.67	0.634	0.652	0.381	0.315	0.281	0.254	0.443	0.345	0.51	0.224
NCI-H1793	0.563	0.448	0.415	0.21	0.829	0.819	0.554	0.336	0.323	0.31	0.307	0.284	0.474	0.514	0.344	0.317	0.386	0.47	0.206	0.218
NCI-H1651	0.764	0.609	0.678	0.572	0.922	0.953	0.817	0.616	0.672	0.655	0.632	0.408	0.386	0.448	0.478	0.405	0.362	0.302	0.336	0.365
HCC-78	0.488	0.5	0.392	0.308	0.508	0.413	0.318	0.226	0.25	0.202	0.204	0.162	0.511		0.373	0.227	0.7		0.753	0.524
NCI-H23	0.919	0.94	0.778	0.437	0.632	0.641	0.605	0.423	0.528	0.491	0.444	0.464	0.808	0.845	0.787	0.423	0.688	0.844	0.673	0.666

— the supplement of paper PMC10307832
